Source: patent US20250326748A1, “COMPOUNDS AND METHODS FOR MODULATING SPLICING” (REMIX THERAPEUTICS INC., priority 2022, published 2025)
Where a name gives a salt, the structure may show the parent alone. Read-outs that look alike come from different tables or passages of the source.

Experiments:
MYB mRNA = experiment: Splicing RT-qPCR assay, MYB canonical (CJ) and alternative (AJ) junction mRNA; format: cell-based, human; settings: Homo sapiens; for IC50: canonical junction mRNA; for AC50: alternative junction mRNA, read-out: MYB AJ (AC50, increase in AJ mRNA)
Method in brief: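 Treatment of A673 or K562 cultures with compounds (eleven-point titration, highest final 10 uM, ≤0.25% DMSO) ran one day at 37 °C. Afterwards cells were lysed directly in the well, and cDNA synthesis coupled with qPCR measured CJ and AJ isoform levels against a reference transcript.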

HiBiT-tagged MYB protein = experiment: HiBiT protein abundance assay, MYB (K562 HiBiT knock-in); format: cell-based, human; settings: HiBiT knock-in cells, 24 hours
Method in brief: (§1)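 Endogenously HiBiT-tagged K562 knock-in lines treated 24 h at 37 °C with 10-point 3-fold dilutions (top 10 μM final, DMSO ≤0.25%) in IMDM+1% FBS. Lytic Nano-Glo luminescence normalized to DMSO and unmodified K562 controls; four-parameter fit gives 50%-abundance concentration (IC50).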

HiBiT-tagged HTT protein = experiment: HiBiT protein abundance assay, HTT (K562 HiBiT knock-in); format: cell-based, human; settings: HiBiT knock-in cells, 24 hours
Method in brief: as §1

Target C = experiment: HiBiT protein abundance assay, Target C (K562 HiBiT knock-in); format: cell-based, human; settings: HiBiT knock-in cells, 24 hours
Method in brief: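 K562 HiBiT knock-in cells (10000/well) in IMDM + 1% FBS were treated for 24 h at 37° C. with a 10-point 3-fold dilution series (top 10 μM final), with DMSO ≤0.25%. Unmodified K562 served as baseline. HiBiT lytic luminescence was normalized to controls, and IC50 was interpolated at 50% from a four-parameter fit.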

K562 cells = experiment: Cell viability, Cell Titer Glo 2.0 assay, K562; settings: 72 hours
Experimental: Compounds described herein were screened for toxicity in K562 (human chronic myelogenous leukemia) and SH-SY5Y (human neuroblastoma) cells using a Cell Titer Glo 2.0 assay.
• Promega CellTiter-Glo® 2.0 Cell Viability Assay (cat #G9241) • Corning 384-well TC-treated microplates (cat #3570)
Cells were plated at 500 cells/well (K562 cells) in 45 μL of IMDM supplemented with 10% FBS in a 384-well opaque plate. Wells containing only medium were used as a blank control. Test compounds (e.g., compounds of Formula (I) or (II)) were first serially diluted in DMSO then diluted 1:100 with IMDM+10% FBS. The final concentration of DMSO was 0.1% in each well. The cells were incubated for 72 hours at 37° C. and 5% CO2 before assaying with Cell Titer Glo 2.0 reagent.

[1] = qPCR panel, read-out: MYB CJ (decrease in CJ mRNA levels, IC50)
[2] = RT-qPCR, A673 or K562 cells, 24 hours treatment
[3] = RT-qPCR, A673 or K562 cells, 24 hours treatment, read-out: MYB CJ (IC50, decrease in CJ mRNA)

SMILES	IC50 (MYB mRNA; [1])	AC50 (MYB mRNA; [2])	IC50 (MYB mRNA; [3])	IC50 (HiBiT-tagged MYB protein)	IC50 (HiBiT-tagged HTT protein)	IC50 (Target C)	Effect on Cell Viability, K562 (K562 cells)
CN[C@H]1CCN(c2cnc3nc(-c4cc5cn(C)nc5c(F)c4O)cc(Cl)c3c2)C1 [Compound 272]	< 100 nM	< 100 nM	< 100 nM	< 100 nM	< 100 nM	< 100 nM	A (<100 nM)
Cn1cc2cc(-c3cc(Cl)c4cc(N5CCNC6(CC6)C5)cnc4n3)c(O)c(F)c2n1 [Compound 274]	< 100 nM	< 100 nM	< 100 nM	< 100 nM	100 to 1000 nM	100 to 1000 nM	B (100-1000 nM)
CN(c1cnc2nc(-c3cc4cn(C)nc4c(F)c3O)cc(Cl)c2c1)[C@H]1CCNC1 [Compound 275]	< 100 nM	< 100 nM	< 100 nM	< 100 nM	100 to 1000 nM	1000 to 10000 nM	A (<100 nM)
CN(c1cnc2nc(-c3cc4cn(C)nc4c(F)c3O)cc(Cl)c2c1)[C@@H]1CCNC1 [Compound 276]	< 100 nM	< 100 nM	< 100 nM	< 100 nM	100 to 1000 nM	100 to 1000 nM	A (<100 nM)
Cc1c(O)c(-c2ccc3c(Cl)c(N4CCNCC4)cnc3n2)cc2cn(C)nc12 [Compound 278, 5-[5-chloro-6-(piperazin-1-yl)-1,8-naphthyridin-2-yl]-2,7-dimethylindazol-6-ol]	< 100 nM	< 100 nM	< 100 nM	< 100 nM	100 to 1000 nM	1000 to 10000 nM	A (<100 nM)
C[C@@H]1CN(c2cnc3nc(-c4cc5cn(C)nc5c(F)c4O)cc(Cl)c3c2)C[C@H](C)N1 [Compound 279]	< 100 nM	< 100 nM	< 100 nM	< 100 nM	100 to 1000 nM	100 to 1000 nM	A (<100 nM)
C[C@H]1CN(c2cnc3nc(-c4cc5cn(C)nc5c(F)c4O)cc(Cl)c3c2)C[C@H](C)N1 [Compound 280]	< 100 nM	< 100 nM	< 100 nM	< 100 nM	< 100 nM	< 100 nM	A (<100 nM)
C[C@@H]1CN(c2cnc3nc(-c4cc5cn(C)nc5c(F)c4O)cc(Cl)c3c2)C[C@@H](C)N1 [Compound 281]	< 100 nM	< 100 nM	< 100 nM	< 100 nM	< 100 nM	100 to 1000 nM	A (<100 nM)
Cn1cc2cc(-c3ccc4cc(NC5CCNCC5)cnc4n3)c(O)c(F)c2n1 [Compound 285]	100 to 1000 nM	100 to 1000 nM	100 to 1000 nM	100 to 1000 nM	100 to 1000 nM	1000 to 10000 nM	B (100-1000 nM)
CN[C@@H]1CCN(c2cnc3nc(-c4cc5cn(C)nc5c(C)c4O)cc(Cl)c3c2)C1 [Compound 286, 5-{4-chloro-6-[(3R)-3-(methylamino)pyrrolidin-1-yl]-1,8-naphthyridin-2-yl}-2,7-dimethylindazol-6-ol hydrochloride]	< 100 nM	< 100 nM	< 100 nM	< 100 nM	< 100 nM	< 100 nM	A (<100 nM)
CN[C@H]1CCN(c2cnc3nc(-c4cc5cn(C)nc5c(C)c4O)cc(Cl)c3c2)C1.Cl [Compound 287]	< 100 nM	< 100 nM	< 100 nM	< 100 nM	< 100 nM	100 to 1000 nM	A (<100 nM)
C[C@H]1CN(c2cnc3nc(-c4cc(F)c5nn(C)cc5c4)cc(Cl)c3c2)C[C@@H](C2CC2)N1 [Compound 288]	100 to 1000 nM	100 to 1000 nM	100 to 1000 nM	100 to 1000 nM	1000 to 10000 nM	1000 to 10000 nM	B (100-1000 nM)
Cc1c(O)c(-c2cc(Cl)c3cc(N(C)[C@@H]4CCNC4)cnc3n2)cc2cn(C)nc12.Cl [Compound 293]	100 to 1000 nM	100 to 1000 nM	100 to 1000 nM	100 to 1000 nM	100 to 1000 nM	1000 to 10000 nM	B (100-1000 nM)
Cc1c(O)c(-c2cc(Cl)c3cc(N(C)[C@H]4CCNC4)cnc3n2)cc2cn(C)nc12 [Compound 294]	100 to 1000 nM	100 to 1000 nM	100 to 1000 nM	100 to 1000 nM	100 to 1000 nM	1000 to 10000 nM	B (100-1000 nM)
C[C@@H]1CN(c2cnc3nc(-c4cc(F)c5nn(C)cc5c4)cc(Cl)c3c2)CCN1 [Compound 295, 4-chloro-2-(7-fluoro-2-methylindazol-5-yl)-6-[(3R)-3-methylpiperazin-1-yl]-1,8-naphthyridine]	< 100 nM	100 to 1000 nM	< 100 nM	100 to 1000 nM	100 to 1000 nM	100 to 1000 nM	B (100-1000 nM)
C[C@H]1CN(c2cnc3nc(-c4cc(F)c5nn(C)cc5c4)cc(Cl)c3c2)CCN1 [Compound 296]	< 100 nM	100 to 1000 nM	< 100 nM	< 100 nM	100 to 1000 nM	100 to 1000 nM	A (<100 nM)
Cc1cn2cc(-c3cc(Cl)c4cc(N5C[C@@H](C)N[C@@H](C)C5)cnc4n3)cc(F)c2n1 [Compound 297]	100 to 1000 nM	100 to 1000 nM	100 to 1000 nM	100 to 1000 nM	100 to 1000 nM	1000 to 10000 nM	B (100-1000 nM)
Cc1cn2cc(-c3cc(Cl)c4cc(N5C[C@H](C)N[C@@H](C)C5)cnc4n3)cc(F)c2n1 [Compound 298]	< 100 nM	< 100 nM	< 100 nM	< 100 nM	100 to 1000 nM	1000 to 10000 nM	B (100-1000 nM)
Cc1c(O)c(-c2ccc3c(C(F)(F)F)c(N4CCNCC4)cnc3n2)cc2cn(C)nc12 [Compound 302, 2,7-dimethyl-5-[6-(piperazin-1-yl)-5-(trifluoromethyl)-1,8-naphthyridin-2-yl]indazol-6-ol]	100 to 1000 nM	100 to 1000 nM	100 to 1000 nM	100 to 1000 nM	1000 to 10000 nM	1000 to 10000 nM	B (100-1000 nM)
CN1CCC[C@@H]2CN(c3cnc4nc(-c5cc6cn(C)nc6c(F)c5O)cc(Cl)c4c3)C[C@@H]21 [Compound 303]	100 to 1000 nM	100 to 1000 nM	100 to 1000 nM	100 to 1000 nM	100 to 1000 nM	1000 to 10000 nM	B (100-1000 nM)
CN1CCC[C@H]2CN(c3cnc4nc(-c5cc6cn(C)nc6c(F)c5O)cc(Cl)c4c3)C[C@H]21 [Compound 304]	100 to 1000 nM	100 to 1000 nM	100 to 1000 nM	100 to 1000 nM	1000 to 10000 nM	> 10000 nM	B (100-1000 nM)
C[C@@H]1CN(c2cnc3nc(-c4cc5cn(C)nc5c(F)c4O)cc(C4CC4)c3c2)C[C@H](C)N1 [Compound 305, 5-{4-cyclopropyl-6-[(3R,5S)-3,5-dimethylpiperazin-1-yl]-1,8-naphthyridin-2-yl}-7-fluoro-2-methylindazol-6-ol]	100 to 1000 nM	100 to 1000 nM	100 to 1000 nM	100 to 1000 nM	1000 to 10000 nM	1000 to 10000 nM	C (1000-9999 nM)
CCN[C@@H]1CCN(c2cnc3nc(-c4cc5cn(C)nc5cc4O)ccc3c2)C1 [Compound 310, 5-{6-[(3R)-3-(ethylamino)468pyrrolidine-1-yl]-1,8-naphthyridin-2-yl}-2-methylindazol-6-ol hydrochloride]	< 100 nM	< 100 nM	< 100 nM	< 100 nM	100 to 1000 nM	100 to 1000 nM	B (100-1000 nM)
CCN[C@H]1CCN(c2cnc3nc(-c4cc5cn(C)nc5cc4O)ccc3c2)C1 [Compound 311, 5-{6-[(3S)-3-(ethylamino)pyrrolidin-1-yl]-1,8-naphthyridin-2-yl}-2-methylindazol-6-ol hydrochloride]	100 to 1000 nM	100 to 1000 nM	100 to 1000 nM	100 to 1000 nM	100 to 1000 nM	100 to 1000 nM	B (100-1000 nM)
Cn1cc2cc(-c3ccc4cc(N5CC[C@@H](NCC6CC6)C5)cnc4n3)c(O)cc2n1 [Compound 313]	100 to 1000 nM	< 100 nM	100 to 1000 nM	100 to 1000 nM	100 to 1000 nM	100 to 1000 nM	B (100-1000 nM)
